Measured values taken from US20260297070A1, “CYCLIC [COMPOUND LEFT OUT] WRN INHIBITORS” (Nimbus Wadjet, Inc., priority 2023, published 2026).

The compounds below were run against T1, human Werner helicase (WRN-BV08, Uniprot Q14191, amino acids 517-1235 with L1074F point mutation) (Homo sapiens, UniProt Q14191, L1074F) (assay: WRN (BV08) ADP-Glo Assay). Conditions: 0.15 nM WRN, 5 μM ATP, 0.1 nM DNA duplex, 15 min preincubation, 60 min at 25° C., pH 7.5, 1% DMSO; read-out: ADP-Glo_hWRN_IC50.
T1 construct: Uniprot Q14191, amino acids 517-1235 with L1074F point mutation; TEV-cleavable 8×His (C, cleaved yes); made in house; host or cells: Sf9 insect cells (baculovirus)
Format: biochemical
Summary of the method: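 WRN 0.15 nM + cpd, 15 min 25 °C; add 5 μM ATP / 0.1 nM annealed DNA duplex; 60 min 25 °C; ADP-Glo stop, RLU. Buffer 20 mM Bicine pH 7.5, 1 mM MgCl2, 10 mM KCl, 1 mM TCEP. IC50, 4-parameter fit.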

T1 sequence (Q14191 with tags, fused parts or gaps L1074F limits assumed): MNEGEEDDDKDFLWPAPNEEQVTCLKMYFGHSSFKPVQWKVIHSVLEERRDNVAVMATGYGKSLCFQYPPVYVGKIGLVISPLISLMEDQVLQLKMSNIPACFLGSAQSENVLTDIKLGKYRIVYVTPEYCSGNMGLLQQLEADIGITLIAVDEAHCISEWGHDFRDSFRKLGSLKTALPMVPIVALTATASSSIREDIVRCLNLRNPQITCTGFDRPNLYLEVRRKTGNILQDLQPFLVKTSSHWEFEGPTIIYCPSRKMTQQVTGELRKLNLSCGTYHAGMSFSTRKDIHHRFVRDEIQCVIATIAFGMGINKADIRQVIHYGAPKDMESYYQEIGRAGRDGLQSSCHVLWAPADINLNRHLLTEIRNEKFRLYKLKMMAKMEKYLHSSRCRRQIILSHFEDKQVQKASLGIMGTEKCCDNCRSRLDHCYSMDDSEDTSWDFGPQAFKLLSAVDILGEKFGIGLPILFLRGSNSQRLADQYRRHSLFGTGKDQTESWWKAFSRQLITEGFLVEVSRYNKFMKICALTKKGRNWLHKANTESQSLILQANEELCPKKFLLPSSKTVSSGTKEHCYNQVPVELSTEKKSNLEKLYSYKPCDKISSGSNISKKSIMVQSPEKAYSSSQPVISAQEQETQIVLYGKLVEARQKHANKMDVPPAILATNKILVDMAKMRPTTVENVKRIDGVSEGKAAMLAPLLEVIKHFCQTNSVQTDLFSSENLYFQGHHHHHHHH

**Q.** With `O=C([C@H]1[C@@H]2CCC[C@@H]21)N(Cc1ccncc1)C1C=CS(=O)(=O)C1` (stereo partly drawn) [I-583, (1R,5S,6R)-N-(1,1-dioxo-2,3-dihydro-1lambda6-thiophen-3-yl)-N-[(pyridin-4-yl)methyl]bicyclo[3.1.0]hexane-6-carboxamide] as the compound, how does the IC50 read?
**A.** Its IC50 is > 50 µM.

**Q.** For `O=C(CC1CC(c2ccccc2)C1)N(Cc1ccncc1)C1C=CS(=O)(=O)C1` (centres unmarked) [I-584, N-(1,1-dioxo-2,3-dihydro-1lambda6-thiophen-3-yl)-2-(3-phenylcyclobutyl)-N-[(pyridin-4-yl)methyl]acetamide], which IC50 is on record?
**A.** Its IC50 is > 50 µM.

**Q.** Which IC50 does the source give for `O=C1Nc2ccccc2C1CCC(=O)N(Cc1ccncc1)C1C=CS(=O)(=O)C1` (centres unmarked) [I-585, N-(1,1-dioxo-2,3-dihydro-1lambda6-thiophen-3-yl)-3-(2-oxo-2,3-dihydro-1H-indol-3-yl)-N-[(pyridin-4-yl)methyl]propanamide] here?
**A.** Its IC50 is > 50 µM.

**Q.** For `O=C(N(Cc1ccncc1)C1C=CS(=O)(=O)C1)C12CC(c3cccc(C(F)(F)F)c3)(C1)C2F` (centres unmarked) [I-586, N-(1,1-dioxo-2,3-dihydro-1lambda6-thiophen-3-yl)-2-fluoro-N-[(pyridin-4-yl)methyl]-3-[3-(trifluoromethyl)phenyl]bicyclo[1.1.1]pentane-1-carboxamide], which IC50 is on record?
**A.** Its IC50 is > 50 µM.

**Q.** For `C[Si](C)(C)c1ccc(CC(=O)N(Cc2ccncc2)C2C=CS(=O)(=O)C2)cc1` (centres unmarked) [I-587, N-(1,1-dioxo-2,3-dihydro-1lambda6-thiophen-3-yl)-N-[(pyridin-4-yl)methyl]-2-[4-(trimethylsilyl)phenyl]acetamide], which IC50 is on record?
**A.** The IC50 was 10 to 50 µM.

**Q.** `COc1cc(CN(C(=O)Cc2ccc(OC3CC3)cc2)C2C=CS(=O)(=O)C2)ccn1` (centres unmarked) [I-588, 2-(4-cyclopropoxyphenyl)-N-(1,1-dioxo-2,3-dihydro-1lambda6-thiophen-3-yl)-N-[(2-methoxypyridin-4-yl)methyl]acetamide] was tested. Which IC50 did it give?
**A.** The IC50 was 10 to 50 µM.

**Q.** Which IC50 does the source give for `O=C(Cn1cc2cc(C(F)(F)F)ccc2n1)N(Cc1ccncc1)C1C=CS(=O)(=O)C1` (centres unmarked) [I-589, N-(1,1-dioxo-2,3-dihydro-1lambda6-thiophen-3-yl)-N-[(pyridin-4-yl)methyl]-2-[5-(trifluoromethyl)-2H-indazol-2-yl]acetamide] here?
**A.** Its IC50 is 0.5 to 5 µM.

**Q.** With `O=C(Cn1ncc2cc(C(F)(F)F)ccc21)N(Cc1ccncc1)C1C=CS(=O)(=O)C1` (centres unmarked) [I-590, N-(1,1-dioxo-2,3-dihydro-1lambda6-thiophen-3-yl)-N-[(pyridin-4-yl)methyl]-2-[5-(trifluoromethyl)-1H-indazol-1-yl]acetamide] as the compound, how does the IC50 read?
**A.** The IC50 was 5 to 10 µM.

**Q.** For `COc1cc(CN(C(=O)Cc2ccc(C3CC(F)C3)cc2F)[C@@H]2C=CS(=O)(=O)C2)ccn1` (stereo partly drawn) [I-591, N-[(3R)-1,1-dioxo-2,3-dihydro-1lambda6-thiophen-3-yl]-2-[2-fluoro-4-(3-fluorocyclobutyl)phenyl]-N-[(2-methoxypyridin-4-yl)methyl]acetamide], which IC50 is on record?
**A.** Its IC50 is 0.5 to 5 µM.

**Q.** For `O=C(Cn1cc2ccc(C(F)F)cc2n1)N(Cc1ccncc1)C1C=CS(=O)(=O)C1` (centres unmarked) [I-592, 2-[6-(difluoromethyl)-2H-indazol-2-yl]-N-(1,1-dioxo-2,3-dihydro-1lambda6-thiophen-3-yl)-N-[(pyridin-4-yl)methyl]acetamide], which IC50 is on record?
**A.** The IC50 was 10 to 50 µM.

**Q.** For `O=C(Cn1ncc2ccc(C(F)F)cc21)N(Cc1ccncc1)C1C=CS(=O)(=O)C1` (centres unmarked) [I-593, 2-[6-(difluoromethyl)-1H-indazol-1-yl]-N-(1,1-dioxo-2,3-dihydro-1lambda6-thiophen-3-yl)-N-[(pyridin-4-yl)methyl]acetamide], which IC50 is on record?
**A.** Its IC50 is > 50 µM.

**Q.** Which IC50 does the source give for `CN(C)C(=O)C(C(=O)N(Cc1ccnc(C(C)(C)O)c1)C1C=CS(=O)(=O)C1)n1cc(-c2ccccc2)cn1` (centres unmarked) [I-594, N′-(1,1-dioxo-2,3-dihydro-1lambda6-thiophen-3-yl)-N′-{[2-(2-hydroxypropan-2-yl)pyridin-4-yl]methyl}-N,N-dimethyl-2-(4-phenyl-1H-pyrazol-1-yl)propanediamide] here?
**A.** The IC50 was 0.5 to 5 µM.

**Q.** For `COc1cc(CN(C(=O)Cn2ncc(-c3ccccc3)c2C)[C@@H]2C=CS(=O)(=O)C2)ccn1` [I-595, N-[(3R)-1,1-dioxo-2,3-dihydro-1lambda6-thiophen-3-yl]-N-[(2-methoxypyridin-4-yl)methyl]-2-(5-methyl-4-phenyl-1H-pyrazol-1-yl)acetamide], which IC50 is on record?
**A.** The IC50 was 0.5 to 5 µM.

**Q.** How did the IC50 turn out when `COc1cc(CN(C(=O)Cn2cc(-c3ccccc3)c(C)n2)[C@@H]2C=CS(=O)(=O)C2)ccn1` [I-596, N-[(3R)-1,1-dioxo-2,3-dihydro-1lambda6-thiophen-3-yl]-N-[(2-methoxypyridin-4-yl)methyl]-2-(3-methyl-4-phenyl-1H-pyrazol-1-yl)acetamide] was run?
**A.** The IC50 was 10 to 50 µM.

**Q.** `COc1cc(CN(C(=O)Cn2cnc(-c3ccc(F)cc3)c2)[C@@H]2C=CS(=O)(=O)C2)ccn1` [I-597, N-[(3R)-1,1-dioxo-2,3-dihydro-1lambda6-thiophen-3-yl]-2-[4-(4-fluorophenyl)-1H-imidazol-1-yl]-N-[(2-methoxypyridin-4-yl)methyl]acetamide] was tested. Which IC50 did it give?
**A.** Its IC50 is > 50 µM.

**Q.** `COc1cc(CN(C(=O)Cn2cc(-c3ccc(F)c(F)c3)cn2)[C@@H]2C=CS(=O)(=O)C2)ccn1` [I-598, 2-[4-(3,4-difluorophenyl)-1H-pyrazol-1-yl]-N-[(3R)-1,1-dioxo-2,3-dihydro-1lambda6-thiophen-3-yl]-N-[(2-methoxypyridin-4-yl)methyl]acetamide] was tested. Which IC50 did it give?
**A.** Its IC50 is < 0.5 µM.

**Q.** For `O=C(Cn1cc(-c2ccc(F)c(F)c2)cn1)N(Cc1nc(C2CC2)cs1)C1C=CS(=O)(=O)C1` (centres unmarked) [I-599, N-[(4-cyclopropyl-1,3-thiazol-2-yl)methyl]-2-[4-(3,4-difluorophenyl)-1H-pyrazol-1-yl]-N-(1,1-dioxo-2,3-dihydro-1lambda6-thiophen-3-yl)acetamide], which IC50 is on record?
**A.** Its IC50 is < 0.5 µM.

**Q.** `COc1cc(CN(C(=O)Cc2ccc(S(F)(F)(F)(F)F)cc2)C2C=CS(=O)(=O)C2)ncn1` (centres unmarked) [I-600, N-(1,1-dioxo-2,3-dihydro-1lambda6-thiophen-3-yl)-N-[(6-methoxypyrimidin-4-yl)methyl]-2-[4-(pentafluoro-lambda6-sulfanyl)phenyl]acetamide] was tested. Which IC50 did it give?
**A.** Its IC50 is 0.5 to 5 µM.

**Q.** With `COc1cc(CN(C(=O)C(OCCO)c2ccc(-c3ccc(F)c(F)c3)cc2F)[C@@H]2C=CS(=O)(=O)C2)ccn1` (stereo partly drawn) [I-603, N-[(3R)-1,1-dioxo-2,3-dihydro-1lambda6-thiophen-3-yl]-2-(2-hydroxyethoxy)-N-[(2-methoxypyridin-4-yl)methyl]-2-{3,3′,4′-trifluoro-[1,1′-biphenyl]-4-yl}acetamide] as the compound, how does the IC50 read?
**A.** Its IC50 is < 0.5 µM.

**Q.** Which IC50 does the source give for `O=C(Cc1ccc(S(F)(F)(F)(F)F)cc1)N(Cc1ccnc(OC(F)F)c1)C1C=CS(=O)(=O)C1` (centres unmarked) [I-605, N-{[2-(difluoromethoxy)pyridin-4-yl]methyl}-N-(1,1-dioxo-2,3-dihydro-1lambda6-thiophen-3-yl)-2-[4-(pentafluoro-lambda6-sulfanyl)phenyl]acetamide] here?
**A.** The IC50 was 0.5 to 5 µM.

**Q.** How did the IC50 turn out when `O=C(Cc1ccc(S(F)(F)(F)(F)F)cc1)N(CC1CC1)C1C=CS(=O)(=O)C1` (centres unmarked) [I-608, N-(cyclopropylmethyl)-N-(1,1-dioxo-2,3-dihydro-1lambda6-thiophen-3-yl)-2-[4-(pentafluoro-lambda6-sulfanyl)phenyl]acetamide] was run?
**A.** Its IC50 is 10 to 50 µM.

**Q.** `Cn1nc(-c2ccccc2)cc1CC(=O)N(Cc1ccncc1)C1C=CS(=O)(=O)C1` (centres unmarked) [I-609, N-(1,1-dioxo-2,3-dihydro-1lambda6-thiophen-3-yl)-2-(1-methyl-3-phenyl-1H-pyrazol-5-yl)-N-[(pyridin-4-yl)methyl]acetamide] was tested. Which IC50 did it give?
**A.** The IC50 was > 50 µM.

**Q.** With `Cc1nc2cc(CC(=O)N(Cc3ccncc3)C3C=CS(=O)(=O)C3)ccc2o1` (centres unmarked) [I-610, N-(1,1-dioxo-2,3-dihydro-1lambda6-thiophen-3-yl)-2-(2-methyl-1,3-benzoxazol-5-yl)-N-[(pyridin-4-yl)methyl]acetamide] as the compound, how does the IC50 read?
**A.** The IC50 was > 50 µM.

**Q.** How did the IC50 turn out when `O=C([C@H]1C[C@@H](c2ccccc2)C1)N(Cc1ccncc1)C1C=CS(=O)(=O)C1` (some centres unmarked) [I-611, (1s,3s)-N-(1,1-dioxo-2,3-dihydro-1lambda6-thiophen-3-yl)-3-phenyl-N-[(pyridin-4-yl)methyl]cyclobutane-1-carboxamide] was run?
**A.** Its IC50 is > 50 µM.

**Q.** How did the IC50 turn out when `Cc1nc(CN(C(=O)Cc2ccc(S(F)(F)(F)(F)F)cc2)C2C=CS(=O)(=O)C2)sc1C` (centres unmarked) [I-612, N-[(4,5-dimethyl-1,3-thiazol-2-yl)methyl]-N-(1,1-dioxo-2,3-dihydro-1lambda6-thiophen-3-yl)-2-[4-(pentafluoro-lambda6-sulfanyl)phenyl]acetamide] was run?
**A.** Its IC50 is < 0.5 µM.

**Q.** For `O=C(CC1COc2ccccc2C1)N(Cc1ccncc1)C1C=CS(=O)(=O)C1` (centres unmarked) [I-613, 2-(3,4-dihydro-2H-1-benzopyran-3-yl)-N-(1,1-dioxo-2,3-dihydro-1lambda6-thiophen-3-yl)-N-[(pyridin-4-yl)methyl]acetamide], which IC50 is on record?
**A.** The IC50 was > 50 µM.

**Q.** With `O=C(C1CC(c2ccc(F)cc2)C1)N(Cc1ccncc1)C1C=CS(=O)(=O)C1` (centres unmarked) [I-614, N-(1,1-dioxo-2,3-dihydro-1lambda6-thiophen-3-yl)-3-(4-fluorophenyl)-N-[(pyridin-4-yl)methyl]cyclobutane-1-carboxamide] as the compound, how does the IC50 read?
**A.** The IC50 was > 50 µM.

**Q.** `O=C(Cn1nc(C(F)F)c2c1CCCC2)N(Cc1ccncc1)C1C=CS(=O)(=O)C1` (centres unmarked) [I-616, 2-[3-(difluoromethyl)-4,5,6,7-tetrahydro-1H-indazol-1-yl]-N-(1,1-dioxo-2,3-dihydro-1lambda6-thiophen-3-yl)-N-[(pyridin-4-yl)methyl]acetamide] was tested. Which IC50 did it give?
**A.** The IC50 was > 50 µM.

Same assay, conditions: ADP-Glo_hWRN_IC50, 0.15 nM WRN, 5 μM ATP, 0.1 nM DNA duplex, 15 min preincubation, 60 min at 25° C., pH 7.5, 1% DMSO

**Q.** Which IC50 does the source give for `O=C(c1cc(-c2ccc(F)cc2)ns1)N(Cc1ccncc1)C1C=CS(=O)(=O)C1` (centres unmarked) [I-615, N-(1,1-dioxo-2,3-dihydro-1lambda6-thiophen-3-yl)-3-(4-fluorophenyl)-N-[(pyridin-4-yl)methyl]-1,2-thiazole-5-carboxamide] here?
**A.** The IC50 was > 50 µM.
